Legend:
[1] = ocular tissue distribution in Dutch belted rabbits (LC-MS); format: in vivo, rabbit; details: 4 mg/ml in 12% F127, daily for 14 days; tissues 6 h after final dose
Procedure: (§1) Sunitnib malate was dissolved in 12% F127 at a concentration of 4 mg/ml and dosed topically to pigmented (Dutch belted) rabbits and pigmented pigs (juvenile farm pigs) once per day for a total of 14 days or 5 days, respectively. Dosing in both rabbits and pigs occurred without anesthesia and 50 uL or 50˜100 uL of an eye drop was administered, respectively. However, dosing in pigs occurred while distracted with food. Tissues were collected 6 h after the final dose for rabbits and 1 h after the final dose for pigs. The drug concentrations were measured by LC-MS.

C57/B6 mice = assay: laser-induced choroidal neovascularization (CNV) in mice; format: in vivo, mouse; details: topical daily for 7 days
Procedure: C57/B6 mice where used to test the topical delivery of sunitinib malate (5 uL at 4 mg/mL) and acriflavine (5 uL at 5 mg/mL) in preventing choroidal neovascularization (CNV) in mice after laser induced rupture of Bruch's membrane in three locations. After laser, both drugs either dissolved in 12% F127 or a aqueous vehicle control (saline or water), were dosed daily for 7 days.

[2] = tested on: retinal ganglion cells (RGCs); assay: optic nerve crush after 5 daily topical doses, pigmented rats; format: in vivo, rat (Brown Norway); details: in 12% F127, daily for 5 days before crush; 14 days after crush; pigmented rats (Brown Norway)
Procedure: Rats were dosed topically with sunitinib malate (5 uL at 4 mg/mL) in 12% F127 daily for 5 days unilaterally. Then, the optic nerve head was exposed and crushed unilaterally and the contralateral eye was used as the control for comparison. 14 days after crushing the nerve (without additional topical dosing), the tissues were isolated for qPCR for genes expressed by retinal ganglion cells (RGCs).

[3] = ocular tissue distribution in farm pigs (LC-MS); format: in vivo, pig; details: 4 mg/ml in 12% F127, daily for 5 days; tissues 1 h after final dose
Procedure: as §1

[4] = tested on: retinal ganglion cells (RGCs); assay: optic nerve crush with once weekly topical dosing; format: in vivo, rat (Brown Norway); details: Day 22
Procedure: Pigmented rats (Brown Norway) were dosed topically (5 uL at 4 mg/mL) with sunitinib malate in 12% F127 or in saline once weekly unilaterally. The optic nerve head was exposed and crushed unilaterally on Day 8 and the contralateral eye was used as the control for comparison. 14 days after crushing the nerve (Day 22), the tissues were isolated for qPCR for genes expressed by retinal ganglion cells (RGCs).

[5] = dissolved in aqueous vehicle control (saline or water)

## CCN(CC)CCNC(=O)c1c(C)[nH]c(/C=C2\C(=O)Nc3ccc(F)cc32)c1C [sunitinib malate]
[1]
  sunitinib and N-desethyl sunitinib levels in ocular tissues and fluids: Therapeutically relevant levels of drug were found in the anterior and posterior segments
C57/B6 mice; dissolved in 12% F127
  suppression of choroidal neovascularization: efficacious in suppressing neovascularization in the choroid
C57/B6 mice; [5]
  suppression of choroidal neovascularization: Only the formulations containing 12% F127 were efficacious
[2]
  protection of RGCs (qPCR for RGC genes): protection of RGCs
[3]
  sunitinib and N-desethyl sunitinib levels in ocular tissues and fluids: Therapeutically relevant levels of drug were found in the anterior and posterior segments
[4]; in 12% F127, once weekly
  protection of RGCs (qPCR for RGC genes): Protection of RGCs was only observed when sunitinib malate was dosed in 12% F127
[4]; in saline, once weekly
  protection of RGCs (qPCR for RGC genes): not when sunitinib malate was dosed in saline

## acriflavine
C57/B6 mice; dissolved in 12% F127
  suppression of choroidal neovascularization: efficacious in suppressing neovascularization in the choroid
C57/B6 mice; [5]
  suppression of choroidal neovascularization: Only the formulations containing 12% F127 were efficacious

Source: patent publication US20210177751A1, “HYPOTONIC HYDROGEL FORMULATIONS FOR ENHANCED TRANSPORT OF ACTIVE AGENTS AT MUCOSAL SURFACES” (The Johns Hopkins University, priority 2017, published 2021)
